From patent publication US10266513B2 (Pfizer Inc., priority 2012, dated 2019)

Target: human full-length BTK Kinase (Homo sapiens (Human), UniProt Q06187)
Experiment: Human BTK LanthaScreen Assay (TR-FRET)
Assay type: biochemical
Details: 50 μM ATP, FAM-Srctide peptide substrate, read-out: BTK Inhibition IC50
Description: Human BTK LanthaScreen Assay

Sequence of human full-length BTK Kinase (Q06187 whole entry): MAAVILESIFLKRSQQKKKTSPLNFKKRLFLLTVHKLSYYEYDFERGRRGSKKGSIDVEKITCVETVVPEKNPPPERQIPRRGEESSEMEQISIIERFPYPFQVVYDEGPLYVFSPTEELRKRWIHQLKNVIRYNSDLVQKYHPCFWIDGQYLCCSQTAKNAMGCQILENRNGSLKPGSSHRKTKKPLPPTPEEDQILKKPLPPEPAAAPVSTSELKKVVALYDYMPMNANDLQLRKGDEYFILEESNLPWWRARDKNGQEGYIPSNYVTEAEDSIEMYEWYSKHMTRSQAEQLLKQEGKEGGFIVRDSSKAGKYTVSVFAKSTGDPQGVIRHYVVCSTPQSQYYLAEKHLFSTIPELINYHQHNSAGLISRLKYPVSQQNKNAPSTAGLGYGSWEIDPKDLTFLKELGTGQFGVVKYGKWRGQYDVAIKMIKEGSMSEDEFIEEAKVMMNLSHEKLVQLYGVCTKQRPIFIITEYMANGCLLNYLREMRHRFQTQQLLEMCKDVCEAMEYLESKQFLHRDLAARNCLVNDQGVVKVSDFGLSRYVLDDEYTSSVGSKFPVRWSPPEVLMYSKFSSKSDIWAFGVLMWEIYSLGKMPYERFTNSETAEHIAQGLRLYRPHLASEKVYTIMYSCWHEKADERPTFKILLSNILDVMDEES

Row | Structure (SMILES) | IC50
1 | C[C@H]1CC[C@@H](n2nc(-c3ccc(Oc4ccc(F)cc4F)cc3)c(C(N)=O)c2N)CN1C#N (relative stereo) [Example 121, 5-amino-1-[(3R*,6S*)-1-cyano-6-methylpiperidin-3-yl]-3-[4-(2,4-difluorophenoxy)phenyl]-1H-pyrazole-4-carboxamide] | 9.9 nM
2 | N#CN1CCCC(n2nc(-c3ccc(Oc4ccccc4)cc3)c(C(N)=O)c2N)C1 (single isomer, unassigned) [Example 3] | 3.3 nM
3 | N#CN1CCCC(n2nc(-c3ccc(Oc4ccc(Cl)cc4)cc3)c(C(N)=O)c2N)C1 (single isomer, unassigned) [Example 14] | 12.5 nM
4 | Cc1ccc(Oc2ccc(-c3nn(C4CCCN(C#N)C4)c(N)c3C(N)=O)cc2)cc1C (single isomer, unassigned) [Example 17] | 0.4 nM
5 | Cc1ccc(Oc2ccc(-c3nn(C4CCCN(C#N)C4)c(N)c3C(N)=O)cc2)cc1C (single isomer, unassigned) [Example 18] | 3 nM
6 | N#CN1CCCC(n2nc(-c3ccc(Oc4ccc(F)cc4F)cc3)c(C(N)=O)c2N)C1 (single isomer, unassigned) [Example 26] | 17.3 nM
7 | Cc1cc(F)ccc1Oc1ccc(-c2nn(C3CCCN(C#N)C3)c(N)c2C(N)=O)cc1 (single isomer, unassigned) [Example 33] | 24.1 nM
8 | Cc1cc(F)ccc1Oc1ccc(-c2nn(C3CCCN(C#N)C3)c(N)c2C(N)=O)cc1 (single isomer, unassigned) [Example 34] | 3.8 nM
9 | N#CN1CCCC(n2nc(-c3ccc(Oc4ccc(F)cc4Cl)cc3)c(C(N)=O)c2N)C1 (single isomer, unassigned) [Example 36] | 25.3 nM
10 | N#CN1CCCC(n2nc(-c3ccc(Oc4ccc(F)cc4Cl)cc3)c(C(N)=O)c2N)C1 (single isomer, unassigned) [Example 37] | 0.79 nM
11 | N#CN1CCC[C@@H](n2nc(-c3ccc(Cc4ccccc4F)cc3)c(C(N)=O)c2N)C1 (single isomer, unassigned) [Example 75] | 0.81 nM
12 | N#CN1CCCC(n2nc(-c3ccc(Cc4cccc(F)c4)cc3)c(C(N)=O)c2N)C1 (single isomer, unassigned) [Example 78] | 1.4 nM
13 | N#CN1CCCC(n2nc(-c3ccc(Cc4cccc(F)c4)cc3)c(C(N)=O)c2N)C1 (single isomer, unassigned) [Example 79] | 31 nM
14 | N#CN1CCCC(n2nc(-c3ccc(Cc4ccc(F)cc4F)cc3)c(C(N)=O)c2N)C1 (single isomer, unassigned) [Example 81] | 5.7 nM
15 | N#CN1CCCC(n2nc(-c3ccc(Cc4ccc(F)cc4F)cc3)c(C(N)=O)c2N)C1 (single isomer, unassigned) [Example 82] | 126 nM
16 | N#CN1CCCC(n2nc(-c3ccc(Cc4ccc(F)c(F)c4)cc3)c(C(N)=O)c2N)C1 (single isomer, unassigned) [Example 84] | 5.6 nM
17 | N#CN1CCCC(n2nc(-c3ccc(Cc4ccc(F)c(F)c4)cc3)c(C(N)=O)c2N)C1 (single isomer, unassigned) [Example 85] | 212 nM
18 | N#CN1CCCC(n2nc(-c3cccc(Oc4ccccc4)c3)c(C(N)=O)c2N)C1 (single isomer, unassigned) [Example 90] | 3.2 nM
19 | N#CN1CCCC(n2nc(-c3cccc(Oc4ccccc4)c3)c(C(N)=O)c2N)C1 (single isomer, unassigned) [Example 91] | 154 nM
20 | N#CN1CCCC(n2nc(-c3ccc(Oc4ccc(Cl)cn4)cc3)c(C(N)=O)c2N)C1 (single isomer, unassigned) [Example 109] | 128 nM
21 | Cc1ccc(Oc2ccc(-c3nn(C4CCCN(C#N)C4)c(N)c3C(N)=O)cc2)nc1 (single isomer, unassigned) [Example 113] | 264 nM
22 | Cc1ccc(Oc2ccc(-c3nn(C4CCCN(C#N)C4)c(N)c3C(N)=O)cc2)nc1 (single isomer, unassigned) [Example 114] | 10.1 nM
23 | N#CCN1CCCC(n2nc(-c3ccc(Oc4ccccc4)cc3)c(C(N)=O)c2N)C1 (stereo not drawn) [Example 4, 5-amino-1-[1-(cyanomethyl)piperidin-3-yl]-3-(4-phenoxyphenyl)-1H-pyrazole-4-carboxamide] | 35 nM

Row | Structure (SMILES) | IC50
24 | N#CN1CCC(n2nc(-c3ccc(Oc4ccccc4)cc3)c(C(N)=O)c2N)CC1 [Example 5, 5-amino-1-(1-cyanopiperidin-4-yl)-3-(4-phenoxyphenyl)-1H-pyrazole-4-carboxamide] | 32.1 nM
25 | N#CN1CCC(n2nc(-c3ccc(Oc4ccccc4)cc3)c(C(N)=O)c2N)C1 (stereo not drawn) [Example 7, 5-amino-1-(1-cyanopyrrolidin-3-yl)-3-(4-phenoxyphenyl)-1H-pyrazole-4-carboxamide] | 16.2 nM
26 | N#CCN1CCC(n2nc(-c3ccc(Oc4ccccc4)cc3)c(C(N)=O)c2N)C1 (stereo not drawn) [Example 8, 5-amino-1-[1-(cyanomethyl)pyrrolidin-3-yl]-3-(4-phenoxyphenyl)-1H-pyrazole-4-carboxamide] | 16.5 nM
27 | N#CN1CC(n2nc(-c3ccc(Oc4ccccc4)cc3)c(C(N)=O)c2N)C1 [Example 9, 5-amino-1-(1-cyanoazetidin-3-yl)-3-(4-phenoxyphenyl)-1H-pyrazole-4-carboxamide] | 23.3 nM
28 | N#CN1CCOCC(n2nc(-c3ccc(Oc4ccccc4)cc3)c(C(N)=O)c2N)C1 (stereo not drawn) [Example 10, 5-amino-1-(4-cyano-1,4-oxazepan-6-yl)-3-(4-phenoxyphenyl)-1H-pyrazole-4-carboxamide] | 13.5 nM
29 | N#CN1CC2CC1CC2n1nc(-c2ccc(Oc3ccccc3)cc2)c(C(N)=O)c1N (stereo not drawn) [Example 11, 5-amino-1-(2-cyano-2-azabicyclo[2.2.1]hept-5-yl)-3-(4-phenoxyphenyl)-1H-pyrazole-4-carboxamide] | 5.9 nM
30 | N#CCN1CC2CC1CC2n1nc(-c2ccc(Oc3ccccc3)cc2)c(C(N)=O)c1N (stereo not drawn) [Example 12, 5-amino-1-[2-(cyanomethyl)-2-azabicyclo[2.2.1]hept-5-yl]-3-(4-phenoxyphenyl)-1H-pyrazole-4-carboxamide] | 54.2 nM
31 | N#CN1CCCC(n2nc(-c3ccc(Oc4ccc(Cl)cc4)cc3)c(C(N)=O)c2N)C1 (stereo not drawn) [Example 13, 5-amino-3-[4-(4-chlorophenoxy)phenyl]-1-(1-cyanopiperidin-3-yl)-1H-pyrazole-4-carboxamide] | 2.6 nM
32 | Cc1ccc(Oc2ccc(-c3nn(C4CCCN(C#N)C4)c(N)c3C(N)=O)cc2)cc1C (stereo not drawn) [Example 16, 5-amino-1-(1-cyanopiperidin-3-yl)-3-[4-(3,4-dimethylphenoxy)phenyl]-1H-pyrazole-4-carboxamide] | 1.28 nM
33 | Cc1ccc(Oc2ccc(-c3nn(C4CCCN(C#N)C4)c(N)c3C(N)=O)cc2)c(C)c1 (stereo not drawn) [Example 23, 5-amino-1-(1-cyanopiperidin-3-yl)-3-[4-(2,4-dimethylphenoxy)phenyl]-1H-pyrazole-4-carboxamide] | 9.2 nM
34 | CC(C)c1ccc(Oc2ccc(-c3nn(C4CCCN(C#N)C4)c(N)c3C(N)=O)cc2)cc1 (stereo not drawn) [Example 24, 5-amino-1-(1-cyanopiperidin-3-yl)-3-[4-(4-isopropylphenoxy)phenyl]-1H-pyrazole-4-carboxamide] | 5 nM
35 | N#CN1CCCC(n2nc(-c3ccc(Oc4ccc(F)cc4F)cc3)c(C(N)=O)c2N)C1 (stereo not drawn) [Example 25, 5-amino-1-(1-cyanopiperidin-3-yl)-3-[4-(2,4-difluorophenoxy)phenyl]-1H-pyrazole-4-carboxamide] | 2.18 nM
36 | Cc1cc(Oc2ccc(-c3nn(C4CCCN(C#N)C4)c(N)c3C(N)=O)cc2)ccc1F (stereo not drawn) [Example 31, 5-amino-1-(1-cyanopiperidin-3-yl)-3-[4-(4-fluoro-3-methylphenoxy)phenyl]-1H-pyrazole-4-carboxamide] | 2.8 nM
37 | Cc1cc(F)ccc1Oc1ccc(-c2nn(C3CCCN(C#N)C3)c(N)c2C(N)=O)cc1 (stereo not drawn) [Example 32, 5-amino-1-(1-cyanopiperidin-3-yl)-3-[4-(4-fluoro-2-methylphenoxy)phenyl]-1H-pyrazole-4-carboxamide] | 4.1 nM
38 | N#CN1CCCC(n2nc(-c3ccc(Oc4ccc(F)cc4Cl)cc3)c(C(N)=O)c2N)C1 (stereo not drawn) [Example 35, 5-amino-3-[4-(2-chloro-4-fluorophenoxy)phenyl]-1-(1-cyanopiperidin-3-yl)-1H-pyrazole-4-carboxamide] | 1.7 nM
39 | Cc1ccc(Oc2ccc(-c3nn(C4CCCN(C#N)C4)c(N)c3C(N)=O)cc2)c(Cl)c1 (stereo not drawn) [Example 38, 5-amino-3-[4-(2-chloro-4-methylphenoxy)phenyl]-1-(1-cyanopiperidin-3-yl)-1H-pyrazole-4-carboxamide] | 2.5 nM
40 | Cc1ccc(Oc2ccc(-c3nn(C4CCCN(C#N)C4)c(N)c3C(N)=O)cc2)c(F)c1 (stereo not drawn) [Example 39, 5-amino-1-(1-cyanopiperidin-3-yl)-3-[4-(2-fluoro-4-methylphenoxy)phenyl]-1H-pyrazole-4-carboxamide] | 1.1 nM
41 | Cc1cc(Oc2ccc(-c3nn(C4CCCN(C#N)C4)c(N)c3C(N)=O)cc2)ccc1Cl (stereo not drawn) [Example 40, 5-amino-3-[4-(4-chloro-3-methylphenoxy)phenyl]-1-(1-cyanopiperidin-3-yl)-1H-pyrazole-4-carboxamide] | 1.5 nM
42 | N#CN1CCCC(n2nc(-c3ccc(Oc4ccc(F)cc4)cc3)c(C(N)=O)c2N)C1 (stereo not drawn) [Example 41, 5-amino-1-(1-cyanopiperidin-3-yl)-3-[4-(4-fluorophenoxy)phenyl]-1H-pyrazole-4-carboxamide] | 6.3 nM
43 | Cc1ccc(Oc2ccc(-c3nn(C4CCCN(C#N)C4)c(N)c3C(N)=O)cc2)cc1 (stereo not drawn) [Example 42, 5-amino-1-(1-cyanopiperidin-3-yl)-3-[4-(4-methylphenoxy)phenyl]-1H-pyrazole-4-carboxamide] | 1.2 nM
44 | N#CN1CCCC(n2nc(-c3ccc(Oc4cc(F)ccc4F)cc3)c(C(N)=O)c2N)C1 (stereo not drawn) [Example 43, 5-amino-1-(1-cyanopiperidin-3-yl)-3-[4-(2,5-difluorophenoxy)phenyl]-1H-pyrazole-4-carboxamide] | 0.77 nM
45 | CC(C)Oc1ccc(Oc2ccc(-c3nn(C4CCCN(C#N)C4)c(N)c3C(N)=O)cc2)cc1 (stereo not drawn) [Example 44, 5-amino-1-(1-cyanopiperidin-3-yl)-3-[4-(4-isopropoxyphenoxy)phenyl]-1H-pyrazole-4-carboxamide] | 24.4 nM
